Patent US20110206720A1, “ANTI-INFLAMMATORY USAGE OF ANTRODIA CINNAMOMEA FRUIT BODY DERIVATIVES” (Taiwan Leader Biotech Corp, priority 2010, published 2011)

Legend:
Type in all cases: cell-based, mice
COX-2 = COX-2 protein expression in LPS-treated RAW 267.4, western blot; details: RAW 267.4, LPS; dose-dependent, especially at 20 µg/ml; FIG. 5B
Protocol: (§1) After getting the total protein of macrophages, add the equal amount of protein in 5˜7% SDS-PAGE, resolve for 90 m at 300 mA, blotting (100V, 1 hour) proteins resolved in different sizes to polyvinylidene difluoride (PVDF, Immobilon, Millipore, Bedford, Mass.), and then put PVDF in the blocking buffer (10% w/v skim milk powder in TBST) for 1 hour.
(§2) Then, dip PVDF in the anti-iNOS solution (1:1000, Cayman Chemicals) and clean twice with 0.1% TBST buffer (TBS buffer containing 0.1% Tween 20) to clear the non-specific bonded antibody and antigen.
(§3) Next, dip PVDF in the anti-rabbit secondary antibodies solution with horseradish peroxidase, detect the fluorescence density of each group by enhanced chemiluminescene regents (ECL, Pierce), and take the expression of β-actin as the reference group.
(§4) In addition, total RNA and total protein are extracted from each group of macrophages. According to the paragraphs of RT-PCR and western blot analysis in Experiment I, the expression of iNOS and COX-2 are evaluated from the perspectives of mRNA and protein.

macrophage RAW 267.4 [1] = experiment: LPS-elicited prostaglandin-E2 (PGE2) production in macrophage RAW 267.4, ELISA; set-up: unit not given here; details: RAW 267.4, aspirin 3 hours, then LPS 1 g/ml 16 hours
Protocol: (§5) The invention chooses the macrophage RAW 267.4 of mice for the discussion about the production of NO and prostaglandin-E2 (PGE2). For the culture of RAW 267.4 cell, firstly inoculate RAW 267.4 macrophages growing in the culture plate (75 cm^2) in 96-well plate in the density of 2×10^5 cells/well and then culture them in the incubator (37° C., 5% CO2). DMEM culture medium is selected according to the recommendation of ATCC (American TypeCulture Collection), with 10% fetal bovine serum (FBS), penicillin (100 units/ml) and streptomycin ([…]) added.
In the experiment for measuring the production of prostaglandin-E2 (PGE2), firstly RAW 267.4 cells are cultured as Experiment I states and […] aspirin is added in the culture medium for 3 hours so that the endogenous COX-1 is deactivated. Then, they are handled for 1 hour in antrocamphin A (1, 5, 10, 20 g/ml) or curcumin (10 g/ml) and processed for 16 hours with LPS (1 g/ml). Finally, supernatant liquid in the cell culture is measured by ELISA kit (Cayman Chemicals) so as to get the production of prostaglandin-E2 (PGE2) in endogenous arachidonic acid.

mRNA of iNOS = experiment: iNOS mRNA expression in LPS-treated RAW 267.4, RT-PCR; details: RAW 267.4, LPS; dose-dependent, higher dose; FIG. 4A
Protocol: (§6) Trizol reagent (Invitrogen Life Technologies, Carlsbad, Calif., USA) is used to extract the total RNA of macrophages. mRNA of iNOS, COX-2 and G3PDH is reversely transcribed to be cDNA by the RT-PCR, and then the expression of iNOS, COX-2 and G3PDH are quantified with the real time-PCR (Applied Biosystems).
(§7) Said real time-PCR detects the PCR products by DNA binding SYBR Green. The thermal cycles are: 95° C., 5 min, 1 min for 40 cycles at 95° C., 45 s for 55° C., and 30 s for 72° C. The sequence of primers is: iNOS forward 5′-TCC TAC ACC ACA CCA AAC-3′; iNOS reverse 5′-CTC CAA TCT CTG CCT ATC C-3′; COX-2 forward 5′-CCT CTG CGA TGC TCT TCC-3′, COX-2 reverse 5′-TCACACTTATACTGGTCAAATCC-3′, G3PDH forward 5′-TCA ACG GCA CAG TCA AGG-3′; G3PDH reverse 5′-ACT CCA CGA CAT ACT CAG C-3′. G3PDH are housekeeping genes which are genes with stable and large number of expression in cells and are used to standardize the expression of iNOS and COX-2 in the experiment.
as §4

macrophage RAW 267.4 [2] = experiment: MTT test of toxicity to cells (cell survival rate)
Protocol: The invention chooses the macrophage RAW 267.4 of mice for the discussion about the production of NO and prostaglandin-E2 (PGE2). For the culture of RAW 267.4 cell, firstly inoculate RAW 267.4 macrophages growing in the culture plate (75 cm^2) in 96-well plate in the density of 2×10^5 cells/well and then culture them in the incubator (37° C., 5% CO2). DMEM culture medium is selected according to the recommendation of ATCC (American TypeCulture Collection), with 10% fetal bovine serum (FBS), penicillin (100 units/ml) and streptomycin ([…]) added. In addition, the familiar MTT is utilized to test the toxicity of Antrocamphin A to cells. Said MTT is a method for detecting cell survival rate or cell proliferation in biology on principle that succinate dehydrogenase in the mitochondria of live cell metabolizes tetrazolium of MTT to be blue products. After DMSO is added to resolve the blue metabolized products accumulated in cells, the amount of blue metabolized products is measured by spectrometer to indirectly calculate the number of live cells.

mRNA of COX-2 = experiment: COX-2 mRNA expression in LPS-treated RAW 267.4, RT-PCR; details: RAW 267.4, LPS; dose-dependent, higher dose; FIG. 4B
Protocol: as §6, §7, §4

iNOS = iNOS protein expression in LPS-treated RAW 267.4, western blot; details: RAW 267.4, LPS; dose-dependent, especially at […]; FIG. 5A
Protocol: as §1, §2, §3, §4

macrophage RAW 267.4 [3] = experiment: LPS-elicited NO production in macrophage RAW 267.4, nitrite by Griess reaction; set-up: unit not given here; details: then LPS 1 g/ml 24 hours
Protocol: as §5
Firstly, RAW 267.4 is cultured as detailed in Experiment I and divided into three groups: group 1 (ACE), group 2 (ACE-EA) and group 3 (ACE-water). For each group, add said ACE, ACE-EA and ACE-water of different concentrations (1, 10, 25, 50 g/ml) in the culture medium, add LPS to elicit RAW267.4 producing NO, and measure the content of nitrite after 24 hours by Griess reaction to indirectly measure the amount of NO.
NO activity inhibition tests are conducted on RAW 267.4 macrophages (see reference in Cell culture, Experiment I) to 17 fractions respectively. Firstly, divide RAW 267.4 cells into 17 groups, add 17 fractions (50 g/ml) in the culture medium, and then add LPS (1 g/ml) to elicit the production of NO. 24 hours later, Griess reaction is conducted to measure the content of nitrites and thus indirectly measuring the production of NO and calculating the inhibition rate of NO.
In the experiment of production of NO, firstly RAW 267.4 cells are cultured as Experiment I states, handled for 1 hour in antrocamphin A (1, 5, 10, 20 g/ml) or curcumin (10 g/ml), and then processed for 24 hours with LPS (1 g/ml). Then, Griess reaction is conducted to measure the content of nitrites and thus indirectly obtaining the production of NO.

Row | SMILES | expression of COX-2 (protein) (COX-2) | Production of prostaglandin-E2 (PGE2) (macrophage RAW 267.4 [1]; 1 g/ml for 1 hour) | Production of prostaglandin-E2 (PGE2) (macrophage RAW 267.4 [1]; 5 g/ml for 1 hour) | Production of prostaglandin-E2 (PGE2) (macrophage RAW 267.4 [1]; 10 g/ml for 1 hour) | Production of prostaglandin-E2 (PGE2) (macrophage RAW 267.4 [1]; 20 g/ml for 1 hour) | expression of mRNA of iNOS (mRNA of iNOS) | Cell survival rate (%) (macrophage RAW 267.4 [2]; MTT, RAW 267.4, 1 g/ml, with LPS) | Cell survival rate (%) (macrophage RAW 267.4 [2]; MTT, RAW 267.4, 5 g/ml, with LPS) | Cell survival rate (%) (macrophage RAW 267.4 [2]; MTT, RAW 267.4, 10 g/ml, with LPS) | Cell survival rate (%) (macrophage RAW 267.4 [2]; MTT, RAW 267.4, 20 g/ml, with LPS) | expression of mRNA of COX-2 (mRNA of COX-2) | expression of iNOS (protein) (iNOS) | Production of NO (M) (macrophage RAW 267.4 [3]; RAW 267.4, 1 g/ml for 1 hour) | Production of NO (M) (macrophage RAW 267.4 [3]; RAW 267.4, 5 g/ml for 1 hour) | Production of NO (M) (macrophage RAW 267.4 [3]; RAW 267.4, 10 g/ml for 1 hour) | Production of NO (M) (macrophage RAW 267.4 [3]; RAW 267.4, 20 g/ml for 1 hour) | Cell survival rate (%) (macrophage RAW 267.4 [2]; mouse, 10 g/ml)
1 | C=C(C)C#Cc1c(OC)cc(OC)c(OC)c1C [antrocamphin A, Antrocamphin A] | effectively reduce the expression of iNOS and COX-2 | 411.5 ± 20.92 | 360.9 ± 23.95 | 237.96 ± 83.85 | 24.62 ± 15.36 | effectively reduce the amount of mRNA of iNOS and COX-2 | 93 ± 4.13% | 92 ± 5.49% | 89 ± 3.22% | 79 ± 3.54% | effectively reduce the amount of mRNA of iNOS and COX-2 | effectively reduce the expression of iNOS and COX-2 | 18 ± 0.36 | 14.68 ± 0.54 | 11.14 ± 0.18 | 7.27 ± 0.18 | –
2 | COc1cc(/C=C/C(=O)CC(=O)/C=C/c2ccc(O)c(OC)c2)ccc1O [curcumin, reference compound] | – | – | – | 6.82 ± 5.2 | – | – | – | – | – | – | – | – | – | – | – | – | 76 ± 4.6%
